Read-outs that look alike come from different tables or passages of the source.
Biological target: human adenosine A2b receptor (Homo sapiens (Human), UniProt P29275)
Assay: Cellular in vitro reporter gene test for A2b receptor activity (CHO-K1, CRE-luciferase, NECA stimulation)
Assay type: cell-based
How it was run: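 CHO-K1 cells with CRE-driven luciferase; antagonists co-incubated with NECA at its EC50, determined in a pre-experiment on each test day. Luciferase read by luminescence 3 h after NECA addition.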

[1] = recombinant CHO-K1 cell line, CRE-luciferase reporter, antagonism of EC50 concentration of NECA, in some cases means of several determinations, rounded to two significant figures, read-out: A2b receptor IC50

Sequence of human adenosine A2b receptor (P29275 whole entry): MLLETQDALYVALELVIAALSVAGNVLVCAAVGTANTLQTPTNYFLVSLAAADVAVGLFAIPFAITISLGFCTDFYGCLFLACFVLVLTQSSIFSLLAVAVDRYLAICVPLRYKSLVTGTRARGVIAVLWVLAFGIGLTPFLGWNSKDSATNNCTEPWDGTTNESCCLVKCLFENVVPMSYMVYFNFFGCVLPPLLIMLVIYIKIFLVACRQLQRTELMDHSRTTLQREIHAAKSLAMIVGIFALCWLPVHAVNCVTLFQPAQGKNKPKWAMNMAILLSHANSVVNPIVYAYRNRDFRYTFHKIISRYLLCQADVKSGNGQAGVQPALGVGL

Row | IC50 [1] | SMILES | IC50
1 | 17 nM | Cc1c(CN2CCNC2=S)sc2c1c(=O)n(C(C)C)c(=O)n2C [Example 297, 3-Isopropyl-1,5-dimethyl-6-[(2-thioxoimidazolidin-1-yl)methyl]thieno[2,3-d]pyrimidine-2,4(1H,3H)-dione] | 
2 | 3.4 nM | COC(=O)N=C1NCCN1Cc1sc2c(c1C)c(=O)n(CC(C)OC)c(=O)n2CCC(F)(F)F (single isomer, unassigned) [Example 473, Methyl [1-{[3-(2-methoxypropyl)-5-methyl-2,4-dioxo-1-(3,3,3-trifluoropropyl)-1,2,3,4-tetrahydrothieno[2,3-d]pyrimidin-6-yl]methyl}imidazolidin-2-ylidene]carbamate] | 
3 | 4.1 nM | COC(=O)N=C1NCCN1Cc1sc2c(c1C)c(=O)n(CC(F)(F)F)c(=O)n2CCC(F)(F)F [Example 381, Methyl [1-{[5-methyl-2,4-dioxo-3-(2,2,2-trifluoroethyl)-1-(3,3,3-trifluoropropyl)-1,2,3,4-tetrahydrothieno[2,3-d]pyrimidin-6-yl]methyl}imidazolidin-2-ylidene]carbamate] | 
4 | 1.2 nM | CCn1c(=O)c2c(C)c(Cn3cc[nH]c3=O)sc2n(CCC(F)(F)F)c1=O [Example 241, 3-Ethyl-5-methyl-6-[(2-oxo-2,3-dihydro-1H-imidazol-1-yl)methyl]-1-(3,3,3-trifluoropropyl)thieno[2,3-d]pyrimidine-2,4(1H,3H)-dione] | 
5 | 46 nM | Cc1c(Cn2[nH]ccc2=O)sc2c1c(=O)n(C(C)C)c(=O)n2CC1CCCO1 (single isomer, unassigned) [Example 135, 3-Isopropyl-5-methyl-6-[(5-oxo-2,5-dihydro-1H-pyrazol-1-yl)methyl]-1-(tetrahydrofuran-2-ylmethyl)thieno[2,3-d]pyrimidine-2,4(1H,3H)-dione] | 
6 | 21 nM | C=CCn1cnn(Cc2sc3c(c2C)c(=O)n(CC)c(=O)n3CCOC(F)(F)F)c1=O [Example 111, 6-[(4-Allyl-5-oxo-4,5-dihydro-1H-1,2,4-triazol-1-yl)methyl]-3-ethyl-5-methyl-1-[2-(trifluoromethoxy)ethyl]thieno[2,3-d]pyrimidine-2,4(1H,3H)-dione] | 
7 | 12 nM | Cc1c(CN2CCNC2=O)sc2c1c(=O)n(CC(C)(C)C)c(=O)n2CC1CCCO1 (single isomer, unassigned) [Example 408, 3-(2,2-Dimethylpropyl)-5-methyl-6-[(2-oxoimidazolidin-1-yl)methyl]-1-(tetrahydrofuran-2-ylmethyl)thieno[2,3-d]pyrimidine-2,4(1H,3H)-dione] | 
8 | 12 nM | COC(=O)N=C1NCCN1Cc1sc2c(c1C)c(=O)n(C(C)C)c(=O)n2CC1CCCO1 (racemic) [Example 380, Methyl [1-{[3-isopropyl-5-methyl-2,4-dioxo-1-(tetrahydrofuran-2-ylmethyl)-1,2,3,4-tetrahydrothieno[2,3-d]pyrimidin-6-yl]methyl}imidazolidin-2-ylidene]carbamate] | 
9 | 33 nM | COCCn1c(=O)c2c(C)c(CN3CCNC3=NC(=O)OC)sc2n(CC2CCO2)c1=O (single isomer, unassigned) [Example 388, Methyl [1-{[3-(2-methoxyethyl)-5-methyl-1-(oxetan-2-ylmethyl)-2,4-dioxo-1,2,3,4-tetrahydrothieno[2,3-d]pyrimidin-6-yl]methyl}imidazolidin-2-ylidene]carbamate] | 
10 |  | Cc1c(CN2CCNC2=NC#N)sc2c1c(=O)n(C(C)C(F)(F)F)c(=O)n2CCC(F)(F)F (racemic) [Example 451, [1-{[5-Methyl-2,4-dioxo-3-(1,1,1-trifluoropropan-2-yl)-1-(3,3,3-trifluoropropyl)-1,2,3,4-tetrahydrothieno[2,3-d]pyrimidin-6-yl]methyl}imidazolidin-2-ylidene]cyanamide] | 10 nM
11 | 13 nM | Cc1c(CN2CCNC2=O)sc2c1c(=O)n(CC(F)F)c(=O)n2CC1COC1 [Example 222, 3-(2,2-Difluoroethyl)-5-methyl-1-(oxetan-3-ylmethyl)-6-[(2-oxoimidazolidin-1-yl)methyl]thieno[2,3-d]pyrimidine-2,4(1H,3H)-dione] | 
12 | 14 nM | COCCn1c(=O)n(C(C)C(F)(F)F)c(=O)c2c(C)c(CN3CCNC3=NC#N)sc21 (racemic) [Example 452, [1-{[1-(2-Methoxyethyl)-5-methyl-2,4-dioxo-3-(1,1,1-trifluoropropan-2-yl)-1,2,3,4-tetrahydrothieno[2,3-d]pyrimidin-6-yl]methyl}imidazolidin-2-ylidene]cyanamide] | 
13 | 120 nM | CCn1c(=O)c2c(C)c(CN3CCN(C(C)=O)C3=O)sc2n(CCOC)c1=O [Example 104, 6-[(3-Acetyl-2-oxoimidazolidin-1-yl)methyl]-3-ethyl-1-(2-methoxyethyl)-5-methylthieno[2,3-d]pyrimidine-2,4(1H,3H)-dione] | 
14 | 130 nM | COCCn1c(=O)n(CC(C)(C)O)c(=O)c2c(C)c(CN3CCNC3=O)sc21 [Example 228, 3-(2-Hydroxy-2-methylpropyl)-1-(2-methoxyethyl)-5-methyl-6-[(2-oxoimidazolidin-1-yl)methyl]thieno[2,3-d]pyrimidine-2,4(1H,3H)-dione] | 
15 | 120 nM | CCn1c(=O)c2c(C)c(CN3CCNC3=S)sc2n(CC2CCCCO2)c1=O (single isomer, unassigned) [Example 141, 3-Ethyl-5-methyl-1-(tetrahydro-2H-pyran-2-ylmethyl)-6-[(2-thioxoimidazolidin-1-yl)methyl]thieno[2,3-d]pyrimidine-2,4(1H,3H)-dione] | 
16 | 25 nM | CCOCCn1c(=O)n(CC(F)(F)F)c(=O)c2c(C)c(CN3CCNC3=O)sc21 [Example 205, 1-(2-Ethoxyethyl)-5-methyl-6-[(2-oxoimidazolidin-1-yl)methyl]-3-(2,2,2-trifluoroethyl)thieno[2,3-d]pyrimidine-2,4(1H,3H)-dione] | 
17 | 31 nM | CCn1c(=O)c2c(C)c(Cn3ncn(CC(O)CO)c3=O)sc2n(CCOC(F)(F)F)c1=O (racemic) [Example 115, 6-{[4-(2,3-Dihydroxypropyl)-5-oxo-4,5-dihydro-1H-1,2,4-triazol-1-yl]methyl}-3-ethyl-5-methyl-1-[2-(trifluoromethoxy)ethyl]thieno[2,3-d]pyrimidine-2,4(1H,3H)-dione] | 
18 | 5 nM | CCn1c(=O)c2c(C)c(CN3CCNC3=S)sc2n(CCCCF)c1=O [Example 30, 3-Ethyl-1-(4-fluorobutyl)-5-methyl-6-[(2-thioxoimidazolidin-1-yl)methyl]thieno[2,3-d]pyrimidine-2,4(1H,3H)-dione] | 
19 | 9.9 nM | Cc1c(Cn2nc[nH]c2=O)sc2c1c(=O)n(C(C)C)c(=O)n2CCC(F)(F)F [Example 253, 3-Isopropyl-5-methyl-6-[(5-oxo-4,5-dihydro-1H-1,2,4-triazol-1-yl)methyl]-1-(3,3,3-trifluoropropyl)thieno[2,3-d]pyrimidine-2,4(1H,3H)-dione] | 
20 | 12 nM | Cc1c(CN2CCNC2=O)sc2c1c(=O)n(CC(F)(F)F)c(=O)n2CC1CCCO1 (racemic) [Example 209, 5-Methyl-6-[(2-oxoimidazolidin-1-yl)methyl]-1-(tetrahydrofuran-2-ylmethyl)-3-(2,2,2-trifluoroethyl)thieno[2,3-d]pyrimidine-2,4(1H,3H)-dione] | 
21 | 45 nM | CCOCCn1c(=O)n(CC(F)F)c(=O)c2c(C)c(CN3CCNC3=O)sc21 [Example 215, 3-(2,2-Difluoroethyl)-1-(2-ethoxyethyl)-5-methyl-6-[(2-oxoimidazolidin-1-yl)methyl]thieno[2,3-d]pyrimidine-2,4(1H,3H)-dione] | 
